One series relates to SK-MEL-5. The series is described as follows: xCELLigence real-time impedance growth assay. The format is cell-based. The settings on record: Formula (I) 100 nM, Compound H 1 uM. As to the method: (§1) Shown is the growth in real time of the (Top A) COLO 741 and (Bottom B) SK-MEL-5 cell lines as measured using the xCELLigence impedance-based cell analyzer as discussed in Example 5. Where indicated FGF2 and Compound H were supplemented to the media at concentrations of 100 ng/ml, and 1 uM, respectively. The Compound of Formula (I) was used at 500 nM in (A) and 100 nM (B).
(§2) For CellTiter-Glo™ assays, cells were dispensed into tissue culture treated 96-well plates (Costar, catalog number 3904) with a final volume of 80 μL of medium and at density of 3000 cells per well. 12 to 24 hrs after plating, 20 μL of each compound dilution series were transferred to plates containing the cells, resulting in compound concentration ranges of 2700 nM to 3.7 nM by 3-fold dilutions and a final DMSO concentration of 0.16%. The total volume in each well was […]. Plates were incubated for 72 hrs and the effects of compounds on cell proliferation was determined using the CellTiter-Glo™ Luminescent Cell Viability Assay (CTG, Promega) and a Victor™ X4 plate reader (Perkin Elmer). For real-time growth assays cells were seeded into xCELLigence E-plates (Roche catalogue number 05232368001) at a density of 4000 cells per well in a total of 90 μl of media and 24 hrs after plating, 11 μl of media with or without compound was added to the wells. 2-4 replicate wells were plated for all cell lines and treatment groups with the exception of LGX818+FGF2 treated COLO 741 cells (N=1). Where indicated final concentrations of compounds and growth factor were 1 uM for Compound H, 100 ng/ml for FGF2, and either 100 nM (SK-MEL-5) or 500 nM (COLO 741) for the Compound of Formula (I). Cells were continuously monitored every two hours for seven days with the xCELLigence real-time impedance based cell analyzer. Impedance was measured using the electrodes on the E-plates, with increasing surface area coverage of cells creating greater electrode impedance. […] In all cases cell index values were normalized to a timepoint immediately following the addition of compound.
(§3) To determine whether rescue of BRAFV600E melanoma cell lines by FGF2 was dependent on FGFR signaling, we examined whether the selective FGFR inhibitor Compound H could prevent FGF2-mediated rescue. Two cell lines which were rescued to varying degrees by FGF2 (COLO 741, and SK-MEL-5, Table 8-1) were cultured in media containing the Compound of Formula (I) and FGF2 either in the presence or absence of Compound H and growth measured in real time.

The subject of the next series is COLO 741. Description: xCELLigence real-time impedance growth assay. The format is cell-based. As to conditions: Formula (I) 500 nM, Compound H 1 uM. As to the method: as §1, §2, §3
The test system of series [1] is HMEX1906 primary melanoma model (HMEX1906-R5). The series is described as follows: Efficacy in HMEX1906-R5 primary melanoma model resistant to Compound of Formula (I). As to conditions: PO; Compound C 250 mg/kg qd×21; Compound of Formula (I) 5 mg/kg bid×21. The format is in vivo. As to the method:
Objective: To evaluate the efficacy of the combination of the Compound of Formula (I) and the CDK 4 inhibitor Compound C in the HMEX1906 primary melanoma model that is grown in the presence of and is resistant to 5 mg/kg the Compound of Formula (I) (HMEX1906-R5)
Drug formulation: Compound C is formulated in 0.5% MC/0.5% Tween80 and the Compound of Formula (I) is formulated in 20% PEG300/3% ETPGS.
Tumors are chopped/minced into cell line like suspension (tumors homogenized). 7 mL of matrigel added and 1.5 mL of HBSS. Suspension warmed in palm until Matrigel is thick and implanted with a 18G needle s.c right flank of female nude mice.
The mice were assigned to the following groups at 18 days post implant with an average tumor volume of 266 mm^3 and average body weight of 25 grams.
Groups: 10 mice/group, route PO, dose volume 0.2 mL
Group 1: Vehicle, 0 mg/kg bid×14
Group 2: Compound C, 250 mg/kg qd×21
Group 3: Compound of Formula (I), 5 mg/kg bid×21
Group 4: Compound C 250 mg/kg qd×21+Compound of Formula (I) 5 mg/kg bid×21

Series [2] relates to A-375 cells expressing mutant NRASQ61K. Description: ATP-based CTG (Cell Titer Glo) cell viability assay, 72 h. As to conditions: Homo sapiens, A-375 NRASQ61K, single agent. As to the method: Compound stocks are prepared in DMSO at a final concentration of 10 mM. Working stocks are serially diluted in the appropriate cell culture medium in 3-fold increments to achieve final assay concentrations ranging from 2.7 μM to 1.2 nM.
A-375 and WM-266-4 cells were purchased from American Type Culture Collection (ATCC). The A-375 cells were cultured in DMEM medium (ATCC) and the WM-266-4 cells were cultured in EMEM medium (ATCC) both supplemented with 10% fetal bovine serum (Gibco) and incubated at 37° C./5% CO2. The cell lines engineered to express commonly occurring alleles indicative of resistance were acquired from Novartis-Emeryville. These resistant models include, A-375 cells expressing mutant MEK1P124L, truncated p61-BRAFV600E, or mutant NRASQ61K, and WM-266-4 cells expressing mutant MEK1C121S, truncated p61-BRAFV600E, or mutant NRASQ61K. These cells were cultured in the appropriate parental medium with selection marker G418 and in the presence of 5 uM LFE158 (MEK mutants) or LIH720 (truncated p61-BRAFV600E).
For screening, cells were seeded in 80 ul of medium in 384-well plates (Thermo Scientific, cat#4332) at 500 (A-375) or 750 (WM-266-4) cell densities per well using a MultiDrop Combi (Thermo-Fisher) with an 8-channel standard cassette. To promote an even distribution of cells across the entire well, cells were briefly centrifuged at 1000 RPM and incubated at room temperature 30 minutes. All plates were incubated at 37° C., 5% CO2 for 24 h prior to compound addition. Compound stock was freshly prepared in the appropriate culture medium, and added using a PAA robot equipped with a 200n1 pin tool. In a minimum of three replicate wells, single agent and combination effects after 72 hours, were assessed by both quantification of cellular ATP levels via Cell Titer Glo (Promega) according to the manufacturer's protocol and by microscopy imaging. For imaging, cells were fixed to the plates and permeabilized with a solution of 10% PFA, 0.3% TX-100 in PBS via a WellMate dispenser with controlled dispensing speeds. Cell nuclei were stained with Hoechst 33342 (H3570, Invitrogen), and all necessary washing steps were performed by a BioTek washer.
Data comprised triplicate measurements for each treatment (compound) condition, 42 replicates of DMSO-treated wells, and duplicates of Staurosporin-treated wells. The data was normalized to the median of the DMSO measurements and summarized by calculating the median of the triplicates. Data was imported into Chalice to calculate compound synergies.

Consider `COC(=O)N[C@@H](C)CNc1nccc(-c2cn(C(C)C)nc2-c2cc(Cl)cc(NS(C)(=O)=O)c2F)n1` [Compound of Formula (I)], for which the “growth in real time (cell index)” value in the series with SK-MEL-5 (SK-MEL-5, FGF2 100 ng/ml) is “growth suppression was abrogated”. For the same compound, the “growth in real time (cell index)” value in the series with SK-MEL-5 (SK-MEL-5, absence of FGF2) is “suppressed the growth”. Besides, in the series with COLO 741 (COLO 741, FGF2 100 ng/ml), the “growth in real time (cell index)” value is listed as “growth suppression was abrogated”. Also, the “growth in real time (cell index)” value with COLO 741 (COLO 741, absence of FGF2) is listed as “suppressed the growth”. For the same compound, in series [1], the “Mean change of body weight” value was 3.5 ± 1.1 % ± SEM, the “Mean change of tumor volume” value is 807 ± 106 mm3 ± SEM, the “Mean change of tumor volume vs control (T/C)” value was 39% and the “Survival (Survivors/Total)” value is given as 10/10. The IC50 in series [2] was 0.134 µM.
